Assay results as given in ChEMBL document CHEMBL5113489, “Design, synthesis, and biological evaluation of membrane-active honokiol derivatives as potent antibacterial agents” (Eur J Med Chem, 2022).
In brackets after ≈: the same amount, converted by molar mass.

Legend:
[1] = tested on: Escherichia coli; test: Antibacterial activity against Escherichia coli ATCC 25922; type: functional
[2] = tested on: Bacillus subtilis; test: Antibacterial activity against Bacillus subtilis ATCC 9372; type: functional
[3] = tested on: Staphylococcus aureus; test: Antibacterial activity against Staphylococcus aureus ATCC 43300; type: functional
[4] = tested on: Staphylococcus aureus; test: Antibacterial activity against Staphylococcus aureus ATCC 31007; type: functional
[5] = tested on: Pseudomonas aeruginosa; test: Antibacterial activity against Pseudomonas aeruginosa ATCC 27853; type: functional
[6] = tested on: Staphylococcus aureus; test: Antibacterial activity against Staphylococcus aureus ATCC 25923; type: functional
[7] = Hemolytic activity in sheep RBC; type: toxicity, cell-based, Ovis aries, Erythrocyte; conditions: sheep red blood cells (erythrocytes)
[8] = Selectivity index, ratio of HC50 for hemolytic activity in sheep RBC to MIC for antibacterial activity against Staphylococcus aureus ATCC 43300; type: toxicity; conditions: sheep red blood cells (erythrocytes)
[9] = tested on: Staphylococcus aureus; test: Antibacterial activity against Staphylococcus aureus ATCC 43300 assessed as resistance development by measuring fold increase in MIC; type: functional
[10] = tested on: Escherichia coli; test: Antibacterial activity against Escherichia coli ATCC 25922 assessed as resistance development by measuring fold increase in MIC; type: functional
[11] = tested on: Staphylococcus aureus; test: In vivo antibacterial activity against Staphylococcus aureus ATCC 43300 in septicemia mouse model assessed as log reduction in bacterial load in liver at 5 mg/kg, administered every 12 hrs for 3 days; type: functional
[12] = tested on: Staphylococcus aureus; test: In vivo antibacterial activity against Staphylococcus aureus ATCC 43300 in septicemia mouse model assessed as log reduction in bacterial load in kidney at 5 mg/kg, administered every 12 hrs for 3 days; type: functional
[13] = tested on: Staphylococcus aureus; test: In vivo antibacterial activity against Staphylococcus aureus ATCC 43300 in septicemia mouse model assessed as log reduction in bacterial load in spleen at 5 mg/kg, administered every 12 hrs for 3 days; type: functional

Compound	MIC [1] [µg/mL]	MIC [2] [µg/mL]	MIC [3] [µg/mL]	MIC [4] [µg/mL]	MIC [5] [µg/mL]	MIC [6] [µg/mL]	HC50 [7] [µg/mL]	selectivity ratio [8]	fold change (FC) [9]	fold change (FC) [10]	log(activity) [11]	log(activity) [12]	log(activity) [13]
C=CCc1ccc(OCCC[N+](C)(C)CCCCCCCCCC)c(-c2ccc(OCCC[N+](C)(C)CCCCCCCCCC)c(CC=C)c2)c1.[Br-].[Br-]	> 128	2	4	32	> 128	16	–	–	–	–	–	–	–
CCn1cc(C(=O)O)c(=O)c2cc(F)c(N3CCNCC3)cc21 [NORFLOXACIN]	–	–	–	–	–	–	–	–	256	–	–	–	–
C=CCc1ccc(OCC(=O)NCCCN(C)C)c(-c2ccc(OCC(=O)NCCCN(C)C)c(CC=C)c2)c1	> 128	> 128	> 128	128 (≈ 232 µM)	> 128	128 (≈ 232 µM)	–	–	–	–	–	–	–
C=CCc1ccc(OCC(=O)NC(CCCCN)C(=O)NCC23CC4CC(CC(C4)C2)C3)c(-c2ccc(OCC(=O)NC(CCCCN)C(=O)NCC34CC5CC(CC(C5)C3)C4)c(CC=C)c2)c1.O=C(O)C(F)(F)F.O=C(O)C(F)(F)F (stereo not given)	> 128	4	4	4	> 128	8	1280	> 320	–	–	–	–	–
C=CCc1ccc(OCC(=O)NC(CCCCN)C(=O)NCc2ccc(-c3ccccc3)cc2)c(-c2ccc(OCC(=O)NC(CCCCN)C(=O)NCc3ccc(-c4ccccc4)cc3)c(CC=C)c2)c1.O=C(O)C(F)(F)F.O=C(O)C(F)(F)F (stereo not given)	> 128	8	16	32	> 128	32	–	–	–	–	–	–	–
COLISTIN	2	8	64	128	1	64	–	–	–	64	–	–	–
O=C(O)c1cn(C2CC2)c2cc(N3CCNCC3)c(F)cc2c1=O [CIPROFLOXACIN]	–	–	–	–	–	–	–	–	–	–	2.01	1.56	1.52
C=CCc1ccc(OCCC[N+](C)(C)CCCCCCCCCCCCCC)c(-c2ccc(OCCC[N+](C)(C)CCCCCCCCCCCCCC)c(CC=C)c2)c1.[Br-].[Br-]	> 128	> 128	> 128	128	> 128	16	–	–	–	–	–	–	–
C=CCc1ccc(OCC(=O)NC(CCCCN)C(=O)NCCCCCCCCCCCC)c(-c2ccc(OCC(=O)NC(CCCCN)C(=O)NCCCCCCCCCCCC)c(CC=C)c2)c1.O=C(O)C(F)(F)F.O=C(O)C(F)(F)F (stereo not given)	> 128	> 128	64	64	> 128	128	–	–	–	–	–	–	–
C=CCc1ccc(OCCC[N+](C)(C)CCCCCCCCCCCC)c(-c2ccc(OCCC[N+](C)(C)CCCCCCCCCCCC)c(CC=C)c2)c1.[Br-].[Br-]	> 128	> 128	> 128	128	> 128	128	–	–	–	–	–	–	–
C=CCc1ccc(OCC(=O)NC(CCCCN)C(=O)NCc2ccc(C(C)(C)C)cc2)c(-c2ccc(OCC(=O)NC(CCCCN)C(=O)NCc3ccc(C(C)(C)C)cc3)c(CC=C)c2)c1.O=C(O)C(F)(F)F.O=C(O)C(F)(F)F (stereo not given)	128	4	4	16	> 128	8	–	–	–	–	–	–	–
C=CCc1ccc(OCC(=O)NCCCN)c(-c2ccc(OCC(=O)NCCCN)c(CC=C)c2)c1.O=C(O)C(F)(F)F.O=C(O)C(F)(F)F	128	> 128	64	64	64	32	–	–	–	–	–	–	–
CN[C@H](CC(C)C)C(=O)N[C@H]1C(=O)N[C@@H](CC(N)=O)C(=O)N[C@H]2C(=O)N[C@H]3C(=O)N[C@H](C(=O)N[C@H](C(=O)O)c4cc(O)cc(O)c4-c4cc3ccc4O)[C@H](O)c3ccc(c(Cl)c3)Oc3cc2cc(c3O[C@@H]2O[C@H](CO)[C@@H](O)[C@H](O)[C@H]2O[C@H]2C[C@](C)(N)[C@H](O)[C@H](C)O2)Oc2ccc(cc2Cl)[C@H]1O [VANCOMYCIN]	> 128	0.5 (≈ 0.345 µM)	–	–	> 128	–	–	–	–	–	–	–	–
C=CCc1ccc(OCCCN)c(-c2ccc(OCCCN)c(CC=C)c2)c1.Cl.Cl	> 128	32	4	8	64	4	438	110	–	–	–	–	–
C=CCc1ccc(O)c(-c2ccc(O)c(CC=C)c2)c1 [HONOKIOL]	> 128	32 (≈ 120 µM)	128 (≈ 481 µM)	64 (≈ 240 µM)	> 128	64 (≈ 240 µM)	–	–	–	–	–	–	–
C=CCc1ccc(OCC(=O)NCCC[N+](C)(C)CCCC)c(-c2ccc(OCC(=O)NCCC[N+](C)(C)CCCC)c(CC=C)c2)c1.[Br-].[Br-]	128	> 128	128	128	> 128	64	–	–	–	–	–	–	–

Further compounds by falling MIC [1], results first:

MIC [1] [µg/mL]	MIC [2] [µg/mL]	MIC [3] [µg/mL]	MIC [4] [µg/mL]	MIC [5] [µg/mL]	MIC [6] [µg/mL]	Compound	HC50 [7] [µg/mL]	selectivity ratio [8]	fold change (FC) [9]	fold change (FC) [10]	log(activity) [11]	log(activity) [12]	log(activity) [13]
128	128	32	64	64	32	C=CCc1ccc(OCC(=O)NCCCCN)c(-c2ccc(OCC(=O)NCCCCN)c(CC=C)c2)c1.O=C(O)C(F)(F)F.O=C(O)C(F)(F)F	–	–	–	–	–	–	–
64	8	8	16	128	16	C=CCc1ccc(OCC(=O)NC(CCCCN)C(=O)NCCCCCCCC)c(-c2ccc(OCC(=O)NC(CCCCN)C(=O)NCCCCCCCC)c(CC=C)c2)c1.O=C(O)C(F)(F)F.O=C(O)C(F)(F)F (stereo not given)	–	–	–	–	–	–	–
64	128	32	32	128	32	C=CCc1ccc(OCC(=O)NCCN)c(-c2ccc(OCC(=O)NCCN)c(CC=C)c2)c1.O=C(O)C(F)(F)F.O=C(O)C(F)(F)F	–	–	–	–	–	–	–
32	8	4	4	128	2	C=CCc1ccc(OCC(=O)NCCC[N+](C)(C)CCCCCCCCCC)c(-c2ccc(OCC(=O)NCCC[N+](C)(C)CCCCCCCCCC)c(CC=C)c2)c1.[Br-].[Br-]	53	13.2	–	–	–	–	–
32	8	16	32	32	16	C=CCc1ccc(OCC(=O)NC(CCCCN)C(=O)NCCCC)c(-c2ccc(OCC(=O)NC(CCCCN)C(=O)NCCCC)c(CC=C)c2)c1.O=C(O)C(F)(F)F.O=C(O)C(F)(F)F (stereo not given)	–	–	–	–	–	–	–
32	32	4	8	128	8	C=CCc1ccc(OCC(=O)NCCC[N+](C)(C)CCCCCCCCCCCC)c(-c2ccc(OCC(=O)NCCC[N+](C)(C)CCCCCCCCCCCC)c(CC=C)c2)c1.[Br-].[Br-]	–	–	–	–	–	–	–
16	32	8	16	64	8	C=CCc1ccc(OCCN)c(-c2ccc(OCCN)c(CC=C)c2)c1.Cl.Cl	694	86.7	–	–	–	–	–
16	16	16	16	128	8	C=CCc1ccc(OCC(=O)NCCC[N+](C)(C)CCCCCC)c(-c2ccc(OCC(=O)NCCC[N+](C)(C)CCCCCC)c(CC=C)c2)c1.[Br-].[Br-]	183	11.4	–	–	–	–	–
16	> 128	> 128	128	> 128	64	C=CCc1ccc(OCC(=O)NCCC[N+](C)(C)C)c(-c2ccc(OCC(=O)NCCC[N+](C)(C)C)c(CC=C)c2)c1.[I-].[I-]	–	–	–	–	–	–	–
16	4	4	8	16	4	C=CCc1ccc(OCC(=O)NC(CCCCN)C(=O)NCCCCCCCCCC)c(-c2ccc(OCC(=O)NC(CCCCN)C(=O)NCCCCCCCCCC)c(CC=C)c2)c1.O=C(O)C(F)(F)F.O=C(O)C(F)(F)F (stereo not given)	> 1280	> 320	–	–	–	–	–
16	8	8	8	16	8	C=CCc1ccc(OCC(=O)NC(CCCCN)C(=O)NCCCCCC)c(-c2ccc(OCC(=O)NC(CCCCN)C(=O)NCCCCCC)c(CC=C)c2)c1.O=C(O)C(F)(F)F.O=C(O)C(F)(F)F (stereo not given)	502	62.7	–	–	–	–	–
16	4	4	8	128	4	C=CCc1ccc(OCCC[N+](C)(C)CCCC)c(-c2ccc(OCCC[N+](C)(C)CCCC)c(CC=C)c2)c1.[Br-].[Br-]	1180	295	–	–	–	–	–
8	4	2	4	16	2	C=CCc1ccc(OCC(=O)NCCC[N+](C)(C)CCCCCCCC)c(-c2ccc(OCC(=O)NCCC[N+](C)(C)CCCCCCCC)c(CC=C)c2)c1.[Br-].[Br-]	123	61.5	–	–	–	–	–
8	1	2	2	16	2	C=CCc1ccc(OCCC[N+](C)(C)CCCCCCCC)c(-c2ccc(OCCC[N+](C)(C)CCCCCCCC)c(CC=C)c2)c1.[Br-].[Br-]	36	18	–	–	–	–	–
